This is an account of results in publication PMC10534582, “A Pharmacokinetic Study of Sixteen Major Bioactive Components of Jinshui-Huanxian Granules in Pulmonary Fibrosis Model and Control Rats Using Orbitrap Fusion Mass Spectrometry” (Molecules, 2023).

Like-named read-outs stand apart in the source and are kept apart here. Where only a bound is given, the exact number is not on record here.

Data set [1] in a line: Pharmacokinetics of JHG components in pulmonary fibrosis (PF) model rats after intragastric administration of JHGs (plasma, Orbitrap Fusion MS). Format: in vivo, Sprague Dawley (SD) rats. Particulars: for Cmax, PF model group compared with the control group: medium dose selected for comparison; for pharmacokinetic process (versus dosage): low, medium, high doses of JHGs. The procedure: (§1) Healthy male Sprague Dawley (SD) rats of SPF grade (240 ± 20 g) were purchased from Sipeifu (Beijing, China) Biotechnology Co., Ltd. (Beijing, China), Certificate of Conformity No.: SCYK (Beijing, China) 2019-0015, Animal Quality Certificate No.: 110324220102348616. They were housed in the Animal Center of Henan University of Traditional Chinese Medicine, which passed the ethical audit, ethics number: DWLL202208003, breeding Co. 24 °C, relative humidity 50 ± 2%. The animals fasted for 12 h before the experiment and drank water freely. All feeding and experimental studies on experimental animals were in accordance with the regulations on the Management of Experimental Animals in Henan Province.
The PF model in rats was replicated by reference to the conclusion tracheal intubation method in the literature. After the rats were anesthetized, bleomycin (BLM) (5 mg/kg) was used as an induction agent and followed the tracheal intubation method. BLM solution was aspirated with a 1 mL syringe and injected into the indwelling syringe. A total of 0.3 mL of air was rapidly pushed into the syringe, the rats were immediately stroked upright so that the BLM solution was evenly distributed in both lungs. BLM was given on day 0 for modeling, then gavage was taken after day 28, with fasting without water for 12 h before sampling. The histopathological examination was performed to verify the construction of the PF model. The rats were anesthetized by the abdominal cavity, then the lung tissues were violently shocked by opening the chest, and the right lower lobe of the lung was taken and fixed in 4% formaldehyde solution, then dehydrated by sucrose gradient, paraffin-embedded, and sectioned. H&E and Masson staining were performed to observe the degree of alveolitis of lung tissue and the degree of pulmonary fibrosis, respectively. The inflammation and fibrosis of lung tissues was observed under the light microscope.
(§2) Twenty-four healthy male SD rats or PF model rats, weighing 240 ± 20 g, fasted for 12 h before the experiment and drank water freely. Both kinds of rats were randomly divided into four groups. Blank group: equal dose of water by intragastric, low dose; administration group: rats were given the equivalent human dose of JHGs by intragastric, i.e., 10.8 g of raw drug/kg/d (5.70 g/kg/d); medium-dose administration group: 2 times the human equivalent dose of JHGs by intragastric, i.e., 21.6 g of raw drug/kg/d (11.41 g/kg/d); high-dose administration group: 4 times the human equivalent dose of JHG, i.e., 43.2 g of raw drug/kg/d (22.81 g/kg/d). Blood was collected from the tail vein before and 0.083, 0.25, 0.5, 0.75, 1, 1.5, 2, 3, 4, 6, 8, 12, 18, and 24 h after dosing, respectively. A total of 0.5 mL was placed in a heparin sodium centrifuge tube. Whole blood was left for 30 min and then centrifuged in a low-temperature freezing centrifuge (4 °C, 3000 r/min) for 15 min. The upper layer of plasma was collected and stored in a refrigerator at −80 °C.
(§3) We added 50 μL of internal standard solution and 800 μL of methanol, shook for 15 min, then centrifuged at 12,000 r/min for 10 min, took the supernatant, dried in a centrifuge concentrator, added 50 μL of the initial mobile phase to the residue, dissolved, centrifuged, then separated the upper layer of the solution used as the test solution. A total of 5 μL test solution was taken into the sample for analysis. For each compound with a certain dosage, the same procedure is repeated six times in parallel. The concentration in plasma was calculated by the internal standard method.
Accucore C18 (100 mm × 2.1 mm, 2.6 μm) column at 25 °C, the mobile phase was methanol (A)-0.1% formic acid aqueous solution (B). The gradient elution program was 0–4 min (65% B-40% B), 4–5 min (40% B-40% B), 5–6 min (40% B-28% B), and 6–7 min (28% B-19% B), 7–7.5 min (19% B-10% B), 7.5–11 min (10% B-0% B), the flow rate was 0.2 mL/min, and the injection volume was 5 μL. […]

Data set [2] can be described thus: Pharmacokinetics of JHG components in control rats after intragastric administration of JHGs (plasma, Orbitrap Fusion MS). Particulars: for pharmacokinetic process (Cmax and AUCs versus dosage): low, medium, high doses of JHGs; for Tmax / AUC(0-inf) / AUC(0-t) / half-life / MRT last / MRT inf / Cmax: male, rat, plasma, po; for MRT last: read-out: MRT(0-t); for MRT inf: read-out: MRT(0-∞); for Cmax: intragastric JHGs. Format: in vivo, Sprague Dawley (SD) rats. The procedure: as §1, §2, §3
Accucore C18 (100 mm × 2.1 mm, 2.6 μm) column at 25 °C, the mobile phase was methanol (A)-0.1% formic acid aqueous solution (B). The gradient elution program was 0–4 min (65% B-40% B), 4–5 min (40% B-40% B), 5–6 min (40% B-28% B), and 6–7 min (28% B-19% B), 7–7.5 min (19% B-10% B), 7.5–11 min (10% B-0% B), the flow rate was 0.2 mL/min, and the injection volume was 5 μL.
The ion source was an electrospray ionization source (ESI). Nitrogen acted as a carrier gas. The sheath gas pressure was 35 Arb. The auxiliary gas pressure was 7 Arb. The spray voltage was 3.50 kv(+), 2.50 kv(-). The ion transport tube temperature was regulated at 300 °C. Gasification temperature was 275 °C. The resolution was 50,000. The scanning mode was set as SIM mode. The optimized parameters obtained are in Table 5.
Under the established Orbitrap Fusion MS method, the pharmacokinetics of JHG in rats were studied to investigate the dynamic changes of the active components in rats. The pharmacokinetic parameters of each component in each dosing group were calculated by […] model analysis using Kinetica 5.1 (Innaphase, Waltham, MA, USA) pharmacokinetic analysis software. The pharmacotemporal curves were plotted by the plotting software. SPSS 19.0 (IBM, Armonk, NY, USA) was used to analyze all the parameters. Independent sample tests were performed after natural logarithmic transformation for AUC0–t, Cmax. The nonparametric Mann–Whitney test was applied for Tmax, t½, and MRT0–t. p < 0.05 was considered statistically significant.

The mark [3] stands for this setting: Sprague-Dawley, after administration of JHGs, read-out: Tmax of all dosages.
Where [4] appears, read: Sprague Dawley, 5.7 g/kg/day, JHGs low dose 5.70 g/kg/d.
Setting [5] is: Sprague Dawley, 11.41 g/kg/day, JHGs medium dose 11.41 g/kg/d.
Where [6] appears, read: Sprague Dawley, 22.81 g/kg/day, JHGs high dose 22.81 g/kg/d.

For `OC[C@H]1O[C@@H](O[C@@H]2OC=C[C@H]3[C@H](O)[C@@H]4O[C@]4(CO)[C@@H]23)[C@H](O)[C@@H](O)[C@@H]1O` [Catalpol], in data set [1] (PF model vs control rats), the “Cmax, PF model group compared with the control group” value is listed as “significantly decreased”.

Consider `CC(C)=CCC[C@](C)(O[C@@H]1O[C@H](CO[C@@H]2O[C@H](CO)[C@@H](O)[C@H](O)[C@H]2O)[C@@H](O)[C@H](O)[C@H]1O)[C@H]1CC[C@]2(C)[C@@H]1[C@H](O)C[C@@H]1[C@@]3(C)CC[C@H](O[C@@H]4O[C@H](CO)[C@@H](O)[C@H](O)[C@H]4O[C@@H]4O[C@H](CO)[C@@H](O)[C@H](O)[C@H]4O)C(C)(C)[C@@H]3CC[C@]12C` [Ginsenoside Rb1], for which, in data set [1] (PF model rats), the “pharmacokinetic process (versus dosage)” value is “linear pharmacokinetic process”. In addition, the “Cmax, PF model group compared with the control group” value in data set [1] (PF model vs control rats) is “significantly decreased”. Also, the “AUCs, PF model group compared with the control group” value in data set [1] (PF model vs control rats, p < 0.05) is listed as “significantly decreased”. Also, the “pharmacokinetic process (Cmax and AUCs versus dosage)” value in data set [2] is “linear pharmacokinetic process”.

For the compound `CC(C)=CCC[C@](C)(O[C@@H]1O[C@H](CO[C@@H]2O[C@@H](CO)[C@H](O)[C@H]2O)[C@@H](O)[C@H](O)[C@H]1O)[C@H]1CC[C@]2(C)[C@@H]1[C@H](O)C[C@@H]1[C@@]3(C)CC[C@H](O[C@@H]4O[C@H](CO)[C@@H](O)[C@H](O)[C@H]4O[C@@H]4O[C@H](CO)[C@@H](O)[C@H](O)[C@H]4O)C(C)(C)[C@@H]3CC[C@]12C` [Ginsenoside Rc], the “shape of plasma concentration–time curve” value in data set [1] (PF model group, medium- and high-dose groups, compared to control group) is given as “double peaks phenomenon”. In addition, in data set [2], the “pharmacokinetic process (Cmax and AUCs versus dosage)” value is “linear pharmacokinetic process”. Further, in data set [2] (setting [3]), the Tmax is not above 2 h.

Consider `COc1ccc([C@@H]2CC(=O)c3c(O)cc(O[C@@H]4O[C@H](CO[C@@H]5O[C@@H](C)[C@H](O)[C@@H](O)[C@H]5O)[C@@H](O)[C@H](O)[C@H]4O)cc3O2)cc1O` [Hesperidin], for which the “Tmax, PF model group compared with the control group” value in data set [1] (PF model vs control rats) is given as “decreased significantly”.

Turning to `COc1ccc(-c2oc3c(CC=C(C)C)c(O[C@@H]4O[C@H](CO)[C@@H](O)[C@H](O)[C@H]4O)cc(O)c3c(=O)c2O[C@@H]2O[C@@H](C)[C@H](O)[C@@H](O)[C@H]2O)cc1` [Icariin], the time to peak (Tmax) in data set [1] (male, Sprague-Dawley, rat, plasma, po, PF model rats, after administration of JHGs, read-out: Tmax of all dosages) was not above 2 h; in data set [2] (setting [3]), not above 2 h. Further, the “pharmacokinetic process (Cmax and AUCs versus dosage)” value in data set [2] is “linear pharmacokinetic process”.

As for `C[C@@H]1O[C@@H](O[C@@H]2[C@@H](O)[C@H](OCCc3ccc(O)c(O)c3)O[C@H](COC(=O)/C=C/c3ccc(O)c(O)c3)[C@H]2O)[C@H](O)[C@H](O)[C@H]1O` [Isoacteoside], in data set [1] (PF model rats), the “pharmacokinetic process (versus dosage)” value is recorded as “linear pharmacokinetic process”. Moreover, in data set [1] (PF model vs control rats), the “Tmax, PF model group compared with the control group” value is listed as “increased about three times”. Moreover, the Clearances in data set [2] (JHGs high dose 22.81 g/kg/d) worked out at 1.12 ± 0.23 L/h/kg; in data set [2] (JHGs low dose 5.70 g/kg/d) it was 0.91 ± 0.18 L/h/kg; in data set [2] (JHGs medium dose 11.41 g/kg/d) it was 0.94 ± 0.1 L/h/kg. Also, the distribution volume (Vss) in data set [2] (JHGs high dose 22.81 g/kg/d) was 9.42 ± 1.03 L; in data set [2] (JHGs low dose 5.70 g/kg/d), 8.97 ± 2.22 L; in data set [2] (JHGs medium dose 11.41 g/kg/d), 9.67 ± 3.39 L. In data set [2], the “pharmacokinetic process (Cmax and AUCs versus dosage)” value is “linear pharmacokinetic process”. For the same compound, the AUC(0-inf) amounted to 35.8 ± 5.5 ng·h/mL in data set [2] (setting [4]), 61.5 ± 8.17 ng·h/mL in data set [2] (setting [5]) and 104 ± 22.4 ng·h/mL in data set [2] (setting [6]). Also, the area under the curve AUC(0-t) in data set [2] (setting [4]) came out at 32.2 ± 4.75 ng·h/mL; in data set [2] (setting [5]) it was 54.9 ± 7.53 ng·h/mL; in data set [2] (setting [6]), 96.4 ± 18.1 ng·h/mL. The half-life is 412 ± 28.8 min in data set [2] (setting [4]), 494 ± 272 min in data set [2] (setting [5]) and 366 ± 46.2 min in data set [2] (setting [6]). For the same compound, the results for the MRT last in data set [2] (setting [4]), in data set [2] (setting [5]) and in data set [2] (setting [6]) were 7.15 ± 0.14 h, 7.03 ± 0.29 h and 6.64 ± 0.33 h, respectively. For the same compound, the results for the MRT inf in data set [2] (setting [4]), in data set [2] (setting [5]) and in data set [2] (setting [6]) were 9.81 ± 0.84 h, 10.4 ± 4.06 h and 8.58 ± 0.98 h, respectively. Also, the Tmax came out at 1 h in data set [2] (Sprague Dawley, 5.7 g/kg/day, JHGs low dose 5.70 g/kg/d, read-out: Tmax); 2 h in data set [2] (Sprague Dawley, 11.41 g/kg/day, JHGs medium dose 11.41 g/kg/d, read-out: Tmax); 3 h in data set [2] (Sprague Dawley, 22.81 g/kg/day, JHGs high dose 22.81 g/kg/d, read-out: Tmax). The Cmax in data set [2] (Sprague Dawley, 5.7 g/kg/day, low dose 5.70 g/kg/d, n=6 (1st of 3 stacked values)) is 5.67 ± 1 ng/mL; in data set [2] (Sprague Dawley, 11.41 g/kg/day, medium dose 11.41 g/kg/d, n=6 (2nd of 3 stacked values)), 9.31 ± 1.05 ng/mL; in data set [2] (Sprague Dawley, 22.81 g/kg/day, high dose 22.81 g/kg/d, n=6 (3rd of 3 stacked values)), 18.4 ± 1.98 ng/mL.
